IC50 data for one substance are collected here from PMC11673335, “Mannich Base Derived from Lawsone Inhibits PKM2 and Induces Neoplastic Cell Death” (Biomedicines, 2024).

This assay deals with T1, PKM2 (pyruvate kinase M2) (Homo sapiens, UniProt P14618).
T1 construct: gene PKM; recombinant human PKM2 (Sigma-Aldrich #SAE0021)
Description: LDH-coupled PKM2 activity assay; confirmed by ATP production (CellTiter-Glo). Format: biochemical. (Cellular ATP, detected with luciferase, serves as a proxy for viable cell number.)

T1 sequence (P14618 2-531): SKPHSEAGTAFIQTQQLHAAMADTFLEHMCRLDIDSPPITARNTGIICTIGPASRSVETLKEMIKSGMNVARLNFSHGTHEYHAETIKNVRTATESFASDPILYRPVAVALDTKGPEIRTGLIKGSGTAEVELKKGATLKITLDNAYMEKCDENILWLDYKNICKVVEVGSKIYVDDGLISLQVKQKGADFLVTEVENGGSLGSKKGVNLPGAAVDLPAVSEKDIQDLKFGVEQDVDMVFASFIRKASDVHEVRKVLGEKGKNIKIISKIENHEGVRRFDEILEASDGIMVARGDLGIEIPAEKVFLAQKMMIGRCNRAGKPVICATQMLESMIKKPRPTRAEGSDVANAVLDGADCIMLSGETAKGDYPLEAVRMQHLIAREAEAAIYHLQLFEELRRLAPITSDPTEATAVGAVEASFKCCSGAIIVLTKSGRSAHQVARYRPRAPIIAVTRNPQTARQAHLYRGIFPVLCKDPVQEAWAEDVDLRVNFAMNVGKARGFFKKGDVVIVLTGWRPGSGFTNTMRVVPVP

In the case of “methyl benzyl((4-chlorophenyl)(3-((methoxycarbonyl)oxy)-1,4-dioxo-1,4-dihydronaphthalen-2-yl)methyl)carbamate [MB-6a]”, the IC50 worked out at 1.04 µM.

Usually IC50 stands for the concentration that gives 50% inhibition. The low end stands for higher potency, the high end for lower potency.
